Assay results taken from paper PMC12143591, “Unlocking the serine mischarging paradox and inhibiting lactyltransferase activity of AlaRS by a single-point mutation” (Nucleic Acids Research, 2025).
Like-named read-outs stand apart in the source and are kept apart here.

What was measured:
Experiment in all cases: PPi release assay (pyrophosphatase, BIOMOL Green, […] nm)
Type in all cases: biochemical
[1] = target: T1, AlaRS429 (Methylomonas sp. DH-1, UniProt Z9JP01Z3Z1, L219M, form not given); conditions: 8 uM tRNA-Ala, 200 uM ATP, 40 mM MgCl2, 1 mM DTT, pH 7.5, 37 °C; read-out: Alanine / K m
T1 construct: residues 1-429 (aminoacylation domain, no editing domain), non-cleavable C-terminal His6 tag, synthetic gene in pET28b(+), E. coli BL21(DE3)

[2] = target: T2, AlaRS (AlaRS^WT) (Methylomonas sp. DH-1, UniProt Z9JP01Z3Z1, V207A/L222M, form not given); conditions: 8 uM tRNA-Ala, 200 uM ATP, 40 mM MgCl2, 1 mM DTT, pH 7.5, 37 °C; read-out: Alanine / K m
T2 construct: full-length, pET-28b(+) (BamHI/NotI), Ni-NTA purified from E. coli Rosetta-gami2(DE3)pLysS; tag removal not mentioned

[3] = target: T3, AlaRS (AlaRS^WT) (Methylomonas sp. DH-1, UniProt Z9JP01Z3Z1, L219F, form not given); conditions: 8 uM tRNA-Ala, 200 uM ATP, 40 mM MgCl2, 1 mM DTT, pH 7.5, 37 °C; read-out: Alanine / K m
T3 construct: full-length, pET-28b(+) (BamHI/NotI), Ni-NTA purified from E. coli Rosetta-gami2(DE3)pLysS; tag removal not mentioned

[4] = target: T4, AlaRS (AlaRS^WT) (Methylomonas sp. DH-1, UniProt Z9JP01Z3Z1, L219M, form not given); conditions: 8 uM tRNA-Ala, 200 uM ATP, 40 mM MgCl2, 1 mM DTT, pH 7.5, 37 °C
T4 construct: full-length, pET-28b(+) (BamHI/NotI), Ni-NTA purified from E. coli Rosetta-gami2(DE3)pLysS; tag removal not mentioned

[5] = target: T5, AlaRS (AlaRS^WT) (Methylomonas sp. DH-1, UniProt Z9JP01Z3Z1, L219A, form not given); conditions: 8 uM tRNA-Ala, 200 uM ATP, 40 mM MgCl2, 1 mM DTT, pH 7.5, 37 °C; read-out: Alanine / K m
T5 construct: full-length, pET-28b(+) (BamHI/NotI), Ni-NTA purified from E. coli Rosetta-gami2(DE3)pLysS; tag removal not mentioned

Compound | Km [1] | Km [2] | Km [3] | Km ([4]; read-out: Alanine / K m) | Km [5] | Km ([4]; read-out: Glycine / K m)
C[C@H](N)C(=O)O [Ala] | 3 ± 1 µM | 145 ± 39 µM | 7 ± 3 µM | 9 ± 1 µM | 9 ± 6 µM | 
NCC(=O)O [Gly] |  |  |  |  |  | 7910 ± 3280 µM
